Measurements reported in JP2008297320A (priority 2000, dated 2001).

Test: Test Example 2: persistence of Compound B concentration in mouse lung tissue (14C-labelled compounds)
Type: in vivo
Conditions: Balb/C mice (female), up to 72 h
[1] = intranasal 14C-labelled Compound A 0.3 and 1 μmol/kg

CCCCCCCC(=O)OC[C@@H](O)[C@@H](OC)[C@@H]1OC(C(=O)O)=C[C@H](NC(=N)N)[C@H]1NC(C)=O [化合物A, 5-アセタミド-4-グアニジノ-9-O-オクタノイル-2、3、4、5-テトラデオキシ-7-メトキシ-D-グリセロ-D-ガラクト-ノン-2-エノピラソン酸]
conversion of Compound A (ester derivative) to Compound B (active form) [1]: 速やかに変換される
persistence of Compound B (active form) concentration in lung tissue after administration of Compound A [1]: 長期にわたり持続した

CO[C@@H]([C@@H]1OC(C(=O)O)=C[C@H](NC(=N)N)[C@H]1NC(C)=O)[C@H](O)CO [化合物B, 5-アセタミド-4-グアニジノ-2、3、4、5-テトラデオキシ-7-メトキシ-D-グリセロ-D-ガラクト-ノン-2-エノピラソン酸, reference compound]
disappearance of Compound B from lung tissue (intranasal 14C-labelled Compound B 4 μmol/kg): 速やかに肺組織から消失した
